On to `CN1C2CCC1CN(C(=O)c1ccc(-c3cccc(C(F)(F)F)c3)o1)C2.O=C(O)/C=C/C(=O)O`, for which the melting point is 108.7 to 109.4 °C. `CN1C2CCC1CN(C(=O)c1cc3ccccc3o1)C2.O=C(O)/C=C/C(=O)O` gave a melting point of 150 to 155 °C. Next, `CN1C2CCC1CN(C(=O)c1ccc(-c3ccccc3)cc1)C2.O=C(O)/C=C/C(=O)O`: 197 to 207 °C.

Molecule `CC(=O)Nc1cccc(-c2ccc(C(=O)N3CC4CCC(C3)N4C)o2)c1.O=C(O)/C=C/C(=O)O` had a melting point of 189 to 193 °C.

For the origin of these results see US20070265271A1, “Novel Diazabicyclic Aryl Derivatives as Cholinergy Ligands” (priority 2004, published 2007).
